Test results as given in ChEMBL document CHEMBL2440076, “New triarylpyrazoles as broad-spectrum anticancer agents: design, synthesis, and biological evaluation” (Eur J Med Chem, 2013).

Columns and labels:
T47D = test: Growth inhibition of human T47D cells assessed as cell growth at 10 uM after 48 hrs by sulforhodamine B assay; format: functional; conditions: read-out: Activity
MCF7 = test: Growth inhibition of human MCF7 cells assessed as cell growth at 10 uM after 48 hrs by sulforhodamine B assay; format: functional; conditions: MCF7, 48 h, read-out: Activity
MDA-MB-231 = test: Growth inhibition of human MDA-MB-231 cells assessed as cell growth at 10 uM after 48 hrs by sulforhodamine B assay; format: functional; conditions: MDA-MB-231, 48 h, read-out: Activity
DU-145 = test: Growth inhibition of human DU145 cells assessed as cell growth at 10 uM after 48 hrs by sulforhodamine B assay; format: functional; conditions: DU-145, 48 h, read-out: Activity
CAKI-1 = test: Growth inhibition of human CAKI-1 cells assessed as cell growth at 10 uM after 48 hrs by sulforhodamine B assay; format: functional; conditions: CAKI-1, 48 h, read-out: Activity
SW-620 = test: Growth inhibition of human SW620 cells after 48 hrs by sulforhodamine B assay; format: functional; conditions: SW-620, 48 h
KM12 = test: Growth inhibition of human KM12 cells after 48 hrs by sulforhodamine B assay; format: functional, cell-based; conditions: KM12, 48 h
[1] = Growth inhibition of human HCC2998 cells after 48 hrs by sulforhodamine B assay; format: functional; conditions: HCC 2998, 48 h
NCI-H226 [2] = test: Growth inhibition of human NCI-H226 cells after 48 hrs by sulforhodamine B assay; format: functional; conditions: NCI-H226, 48 h
SR = test: Growth inhibition of human SR cells after 48 hrs by sulforhodamine B assay; format: functional
RPMI-8226 = test: Growth inhibition of human RPMI8226 cells after 48 hrs by sulforhodamine B assay; format: functional, cell-based; conditions: RPMI-8226, 48 h
CCRF-CEM [3] = test: Growth inhibition of human CCRF-CEM cells after 48 hrs by sulforhodamine B assay; format: functional
ACHN = test: Growth inhibition of human ACHN cells assessed as cell growth at 10 uM after 48 hrs by sulforhodamine B assay; format: functional; conditions: read-out: Activity
A498 [4] = test: Growth inhibition of human A498 cells assessed as cell growth at 10 uM after 48 hrs by sulforhodamine B assay; format: functional; conditions: A498, 48 h, read-out: Activity
SK-OV-3 = test: Growth inhibition of human SKOV3 cells assessed as cell growth at 10 uM after 48 hrs by sulforhodamine B assay; format: functional; conditions: SK-OV-3, 48 h, read-out: Activity
[5] = Growth inhibition of human NCI-ADR-RES cells assessed as cell growth at 10 uM after 48 hrs by sulforhodamine B assay; format: functional; conditions: read-out: Activity
IGROV-1 = test: Growth inhibition of human IGROV1 cells assessed as cell growth at 10 uM after 48 hrs by sulforhodamine B assay; format: functional; conditions: IGROV-1, 48 h, read-out: Activity
Malme-3M = test: Growth inhibition of human MALME-3M cells assessed as cell growth at 10 uM after 48 hrs by sulforhodamine B assay; format: functional; conditions: read-out: Activity
U-251 = test: Growth inhibition of human U251 cells assessed as cell growth at 10 uM after 48 hrs by sulforhodamine B assay; format: functional; conditions: U-251, 48 h, read-out: Activity
HCT-116 = test: Growth inhibition of human HCT116 cells assessed as cell growth at 10 uM after 48 hrs by sulforhodamine B assay; format: functional; conditions: HCT-116, 48 h, read-out: Activity
COLO 205 = test: Growth inhibition of human COLO205 cells assessed as cell growth at 10 uM after 48 hrs by sulforhodamine B assay; format: functional; conditions: COLO 205, 48 h, read-out: Activity
NCI-H226 [6] = test: Growth inhibition of human NCI-H226 cells assessed as cell growth at 10 uM after 48 hrs by sulforhodamine B assay; format: functional; conditions: NCI-H226, 48 h, read-out: Activity
UO-31 = test: Growth inhibition of human UO31 cells after 48 hrs by sulforhodamine B assay; format: functional; conditions: UO-31, 48 h
TK-10 = test: Growth inhibition of human TK10 cells after 48 hrs by sulforhodamine B assay; format: functional; conditions: TK-10, 48 h
SN12C = test: Growth inhibition of human SN12C cells after 48 hrs by sulforhodamine B assay; format: functional
A498 [7] = test: Growth inhibition of human A498 cells after 48 hrs by sulforhodamine B assay; format: functional, cell-based; conditions: A498, 48 h
OVCAR-4 = test: Growth inhibition of human OVCAR4 cells after 48 hrs by sulforhodamine B assay; format: functional; conditions: OVCAR-4, 48 h
UACC-62 = test: Growth inhibition of human UACC62 cells after 48 hrs by sulforhodamine B assay; format: functional; conditions: UACC-62, 48 h
UACC-257 = test: Growth inhibition of human UACC257 cells after 48 hrs by sulforhodamine B assay; format: functional; conditions: UACC-257, 48 h
MDA-MB-435 = test: Growth inhibition of human MDA-MB-435 cells after 48 hrs by sulforhodamine B assay; format: functional, cell-based; conditions: MDA-MB-435, 48 h
M14 = test: Growth inhibition of human M14 cells after 48 hrs by sulforhodamine B assay; format: functional; conditions: M14, 48 h
SNB-75 = test: Growth inhibition of human SNB75 cells after 48 hrs by sulforhodamine B assay; format: functional; conditions: SNB-75, 48 h
SF-268 = test: Growth inhibition of human SF268 cells after 48 hrs by sulforhodamine B assay; format: functional; conditions: SF-268, 48 h
K562 = test: Growth inhibition of human K562 cells assessed as cell growth at 10 uM after 48 hrs by sulforhodamine B assay; format: functional; conditions: K562, 48 h, read-out: Activity
CCRF-CEM [8] = test: Growth inhibition of human CCRF-CEM cells assessed as cell growth at 10 uM after 48 hrs by sulforhodamine B assay; format: functional; conditions: read-out: Activity
[9] = read-out: LC50 (the source's name)

SMILES: COc1cc(-c2nn(-c3cccc(NC(=O)Nc4cccc(C(F)(F)F)c4)c3)cc2-c2ccncc2)ccc1Cl
- growth at 10 µM (T47D): -4.03%
- growth at 10 µM (MCF7): -6.3%
- growth at 10 µM (MDA-MB-231): -28.8%
- growth at 10 µM (DU-145): 9.75%
- growth at 10 µM (CAKI-1): 11.5%
- GI50 (SW-620): 1.23 µM
- TGI (SW-620): 14.3 µM
- CC50 (SW-620; [9]): 50 µM
- GI50 (KM12): 0.573 µM
- IC50 (KM12): 0.57 µM
- TGI (KM12): 1.98 µM
- CC50 (KM12; [9]): > 50 µM
- GI50 [1]: 1.19 µM
- TGI [1]: 3.2 µM
- CC50 [1, 9]: 15.3 µM
- GI50 (NCI-H226 [2]): 1.38 µM
- TGI (NCI-H226 [2]): > 50 µM
- CC50 (NCI-H226 [2]; [9]): > 50 µM
- GI50 (SR): 0.886 µM
- TGI (SR): 2.84 µM
- CC50 (SR; [9]): > 50 µM
- GI50 (RPMI-8226): 0.34 µM
- IC50 (RPMI-8226): 0.34 µM
- TGI (RPMI-8226): 3.12 µM
- CC50 (RPMI-8226; [9]): > 50 µM
- GI50 (CCRF-CEM [3]): 0.945 µM
- LC50 (CCRF-CEM [3]): > 50 µM
- growth at 10 µM (ACHN): 6.54%
- growth at 10 µM (A498 [4]): -5.17%
- growth at 10 µM (SK-OV-3): 4.13%
- growth at 10 µM [5]: -11.9%
- growth at 10 µM (IGROV-1): 14%
- growth at 10 µM (Malme-3M): -32.1%
- growth at 10 µM (U-251): -82.2%
- growth at 10 µM (HCT-116): 0.06%
- growth at 10 µM (COLO 205): -88.9%
- growth at 10 µM (NCI-H226 [6]): 4.3%
- GI50 (UO-31): 0.702 µM
- TGI (UO-31): 3.21 µM
- CC50 (UO-31; [9]): > 50 µM
- GI50 (TK-10): 1.31 µM
- TGI (TK-10): 19 µM
- CC50 (TK-10; [9]): > 50 µM
- GI50 (SN12C): 1.4 µM
- TGI (SN12C): 21.9 µM
- CC50 (SN12C; [9]): > 50 µM
- GI50 (A498 [7]): 0.958 µM
- IC50 (A498 [7]): 0.96 µM
- TGI (A498 [7]): 4.04 µM
- CC50 (A498 [7]; [9]): > 50 µM
- GI50 (OVCAR-4): 1.1 µM
- LC50 (concentration killing 50% of cells) (OVCAR-4): > 50 µM
- TGI (OVCAR-4): 2.1 µM
- GI50 (UACC-62): 0.725 µM
- LC50 (50% lethal concentration) (UACC-62): 3.48 µM
- TGI (UACC-62): 1.59 µM
- GI50 (UACC-257): 0.923 µM
- TGI (UACC-257): 2.31 µM
- CC50 (UACC-257; [9]): 7.58 µM
- GI50 (MDA-MB-435): 0.866 µM
- IC50 (MDA-MB-435): 0.87 µM
- TGI (MDA-MB-435): 2.14 µM
- CC50 (MDA-MB-435; [9]): 8.07 µM
- GI50 (M14): 0.754 µM
- LC50 (concentration killing 50% of cells) (M14): 4.65 µM
- TGI (M14): 1.87 µM
- GI50 (SNB-75): 1.16 µM
- LC50 (lethal concentration, 50% net cell kill) (SNB-75): 50 µM
- TGI (SNB-75): 4.5 µM
- GI50 (SF-268): 1.36 µM
- TGI (SF-268): 5.43 µM
- CC50 (SF-268; [9]): 50 µM
- growth at 10 µM (K562): 1.6%
- growth at 10 µM (CCRF-CEM [8]): -9.68%
